Test results reported in patent US9096592B2, “Bicyclic aza heterocycles, and use thereof” (BAYER INTELLECTUAL PROPERTY GMBH, priority 2010, dated 2015).
pIC50: −log10 of the molar value. Counter-ions that a name gives are not always drawn.

test system: aorta rings; assay: Vasorelaxant action in vitro (phenylephrine-contracted rabbit aorta rings, organ bath); details: Oryctolagus cuniculus; concentration needed to reduce the phenylephrine contraction of rabbit aorta rings by 50%
Method: B-1. Vasorelaxant Action In Vitro
Rabbits are stunned by a blow to the neck and exsanguinated. The aorta is removed, freed from adhering tissue and divided into rings of width 1.5 mm, which are placed individually under prestress into 5 ml organ baths with carbogen-sparged Krebs-Henseleit solution at 37° C. having the following composition (each mM): sodium chloride 119; potassium chloride: 4.8; calcium chloride dihydrate: 1; magnesium sulfate heptahydrate: 1.4; potassium dihydrogenphosphate: 1.2; sodium hydrogencarbonate: 25; glucose: 10. The contractile force is determined with Statham UC2 cells, amplified and digitalized using A/D transducers (DAS-1802 HC, Keithley Instruments Munich), and recorded in parallel on linear recorders. To obtain a contraction, phenylephrine is added to the bath cumulatively in increasing concentration. After several control cycles, the substance to be studied is added in increasing dosage each time in every further run, and the magnitude of the contraction is compared with the magnitude of the contraction attained in the last preceding run. This is used to calculate the concentration needed to reduce the magnitude of the control value by 50% (IC50 value). The standard administration volume is 5 μl; the DMSO content in the bath solution corresponds to 0.1%.

pIC50	Structure (SMILES)
6.33	Fc1cnc2c(c1)c(-c1ncc3cc[nH]c3n1)nn2Cc1ccccc1F [Example 97, 5-Fluoro-1-(2-fluorobenzyl)-3-(7H-pyrrolo[2,3-d]pyrimidin-2-yl)-1H-pyrazolo[3,4-b]pyridine]
7.15	COC(=O)N1CC(=O)Nc2nc(-c3nn(Cc4ccccc4F)c4ncccc34)nc(N)c21 [Example 98, Methyl 4-amino-2-[1-(2-fluorobenzyl)-1H-pyrazolo[3,4-b]pyridin-3-yl]-7-oxo-7,8-dihydropteridine-5(6H)-carboxylate]
6.18	CNc1nc(-c2nn(Cc3ccccc3F)c3ncccc23)nc2[nH]c(=O)n(CC(F)F)c12 [Example 103, 7-(2,2-Difluoroethyl)-2-[1-(2-fluorobenzyl)-1H-pyrazolo[3,4-b]pyridin-3-yl]-6-(methylamino)-7,9-dihydro-8H-purin-8-one]
7.40	O=c1[nH]c2nc(-c3nn(Cc4ccccc4F)c4ncccc34)ncc2n1C1CCN(C2CC2)CC1 [Example 104, 7-(1-Cyclopropylpiperidin-4-yl)-2-[1-(2-fluorobenzyl)-1H-pyrazolo[3,4-b]pyridin-3-yl]-7,9-dihydro-8H-purin-8-one]
6.40	COC(=O)N1NC(=O)Nc2nc(-c3nn(Cc4ccccc4F)c4ncccc34)nc(N)c21 [Example 105, Methyl 8-amino-6-[1-(2-fluorobenzyl)-1H-pyrazolo[3,4-b]pyridin-3-yl]-3-oxo-3,4-dihydropyrimido[4,5-e][1,2,4]triazine-1(2H)-carboxylate]
5.87	Cn1c(=O)[nH]c2nc(-c3nn(Cc4ccccc4F)c4ncccc34)nc(N3CCC3)c21 [Example 112, 6-(Azetidin-1-yl)-2-[1-(2-fluorobenzyl)-1H-pyrazolo[3,4-b]pyridin-3-yl]-7-methyl-7,9-dihydro-8H-purin-8-one]
6.13	Cc1nc(-c2nn(Cc3ccccc3F)c3ncccc23)nc2[nH]c(=O)[nH]c12 [Example 119, 2-[1-(2-Fluorobenzyl)-1H-pyrazolo[3,4-b]pyridin-3-yl]-6-methyl-7,9-dihydro-8H-purin-8-one]
7.38	CC(C)(C)Cn1c(=O)[nH]c2nc(-c3nn(Cc4ccccc4F)c4ncccc34)ncc21 [Example 122, 7-(2,2-Dimethylpropyl)-2-[1-(2-fluorobenzyl)-1H-pyrazolo[3,4-b]pyridin-3-yl]-7,9-dihydro-8H-purin-8-one]
7.06	O=c1[nH]c2nc(-c3nn(Cc4ccccc4F)c4ncccc34)ncc2n1Cc1ccccc1F [Example 124, 7-(2-fluorobenzyl)-2-[1-(2-fluorobenzyl)-1H-pyrazolo[3,4-b]pyridin-3-yl]-7,9-dihydro-8H-purin-8-one]
6.58	Cn1c(=O)[nH]c2nc(-c3nn(Cc4ccccc4F)c4ncccc34)nc(C#CC(C)(C)O)c21 [Example 135, 2-[1-(2-Fluorobenzyl)-1H-pyrazolo[3,4-b]pyridin-3-yl]-6-(3-hydroxy-3-methylbut-1-yn-1-yl)-7-methyl-7,9-dihydro-8H-purin-8-one]
6.94	Cn1c(=O)[nH]c2nc(-c3nn(Cc4ccccc4F)c4ncccc34)nc(C(C)(C)O)c21 [Example 136, 2-[1-(2-Fluorobenzyl)-1H-pyrazolo[3,4-b]pyridin-3-yl]-6-(2-hydroxypropan-2-yl)-7-methyl-7,9-dihydro-8H-purin-8-one]
7.01	O=c1[nH]c2nc(-c3nn(Cc4ccccc4F)c4ncccc34)ncc2n1CCN1CCOCC1 [Example 142, 2-[1-(2-Fluorobenzyl)-1H-pyrazolo[3,4-b]pyridin-3-yl]-7-[2-(morpholin-4-yl)ethyl]-7,9-dihydro-8H-purin-8-one]
6.77	O=c1[nH]c2nc(-c3nn(Cc4ccccc4F)c4ncccc34)ncc2n1C1CCN(CC(F)F)CC1 [Example 145, 7-[1-(2,2-Difluoroethyl)piperidin-4-yl]-2-[1-(2-fluorobenzyl)-1H-pyrazolo[3,4-b]pyridin-3-yl]-7,9-dihydro-8H-purin-8-one]
6.38	CS(=O)(=O)CCn1c(=O)[nH]c2nc(-c3nn(Cc4ccccc4F)c4ncc(F)cc34)ncc21 [Example 146, 2-[5-Fluoro-1-(2-fluorobenzyl)-1H-pyrazolo[3,4-b]pyridin-3-yl]-7-[2-(methylsulfonyl)ethyl]-7,9-dihydro-8H-purin-8-one]
6.24	O=c1[nH]c2nc(-c3nn(Cc4ccccc4F)c4ncccc34)ncc2n1C1CNC1 [Example 147, 7-(Azetidin-3-yl)-2-[1-(2-fluorobenzyl)-1H-pyrazolo[3,4-b]pyridin-3-yl]-7,9-dihydro-8H-purin-8-one hydrochloride]
6.34	O=c1[nH]c2nc(-c3nn(Cc4ccccc4F)c4ncccc34)ncc2c(=O)n1CC(F)(F)F [Example 149, 7-[1-(2-Fluorobenzyl)-1H-pyrazolo[3,4-b]pyridin-3-yl]-3-(2,2,2-trifluoroethyl)pyrimido[4,5-d]pyrimidine-2,4(1H,3H)-dione]
6.32	O=c1[nH]c(=O)c2cnc(-c3nn(Cc4ccccc4F)c4ncccc34)nc2[nH]1 [Example 150, 7-[1-(2-Fluorobenzyl)-1H-pyrazolo[3,4-b]pyridin-3-yl]pyrimido[4,5-d]pyrimidine-2,4(1H,3H)-dione]
5.89	CCc1nc(=O)c2cnc(-c3nn(Cc4ccccc4F)c4ncccc34)nc2[nH]1 [Example 153, 2-Ethyl-7-[1-(2-fluorobenzyl)-1H-pyrazolo[3,4-b]pyridin-3-yl]pyrimido[4,5-d]pyrimidin-4(1H)-one]
